Test results from patent US20170166558A1, “O-GLCNAC TRANSFERASE (OGT) INHIBITORS AND USES THEREOF” (President and Fellows of Harvard College, priority 2014, published 2017).

How the values were obtained:
ncOGT = molecular target: T1, ncOGT (Homo sapiens, UniProt O15294); assay: Radiometric capture assay with Nup62 acceptor and UDP-14C-GlcNAc; format: biochemical
T1 construct: full length human OGT (ncOGT); made in house
T1 sequence (O15294 1-1046): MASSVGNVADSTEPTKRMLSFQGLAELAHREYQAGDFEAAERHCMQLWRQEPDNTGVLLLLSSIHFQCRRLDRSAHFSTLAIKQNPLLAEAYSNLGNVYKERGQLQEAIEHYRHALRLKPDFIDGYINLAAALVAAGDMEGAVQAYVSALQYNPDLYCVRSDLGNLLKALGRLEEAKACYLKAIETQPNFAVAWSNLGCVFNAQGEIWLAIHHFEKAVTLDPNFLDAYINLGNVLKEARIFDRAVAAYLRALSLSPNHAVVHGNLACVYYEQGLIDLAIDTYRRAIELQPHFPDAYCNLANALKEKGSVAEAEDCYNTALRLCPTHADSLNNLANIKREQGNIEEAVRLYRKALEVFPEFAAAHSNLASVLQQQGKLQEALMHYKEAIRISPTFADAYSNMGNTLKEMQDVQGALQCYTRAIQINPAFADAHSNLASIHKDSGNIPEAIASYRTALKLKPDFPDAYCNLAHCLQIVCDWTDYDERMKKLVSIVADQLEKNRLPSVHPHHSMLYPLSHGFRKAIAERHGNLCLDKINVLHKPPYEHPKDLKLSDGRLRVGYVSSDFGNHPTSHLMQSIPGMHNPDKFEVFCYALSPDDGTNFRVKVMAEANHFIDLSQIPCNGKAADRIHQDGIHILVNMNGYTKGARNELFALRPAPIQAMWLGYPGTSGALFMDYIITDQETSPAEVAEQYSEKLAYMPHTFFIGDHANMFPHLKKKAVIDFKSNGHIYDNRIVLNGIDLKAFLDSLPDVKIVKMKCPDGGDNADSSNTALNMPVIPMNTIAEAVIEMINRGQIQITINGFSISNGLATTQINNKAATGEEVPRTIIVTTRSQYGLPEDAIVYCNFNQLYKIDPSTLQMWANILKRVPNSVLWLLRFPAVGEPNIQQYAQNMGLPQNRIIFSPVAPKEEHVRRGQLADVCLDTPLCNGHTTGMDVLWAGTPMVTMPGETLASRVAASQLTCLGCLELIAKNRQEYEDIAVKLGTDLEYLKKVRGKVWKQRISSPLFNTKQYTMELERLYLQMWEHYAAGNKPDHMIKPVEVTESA
Protocol: Radiometric capture assay: Nucleoporin 62 (Nup62) was used as a model substrate. IC50 values of the both inhibitors were determined at range of 0 to 100 μM (eight point, duplicate). OGT antagonists were tested in a reaction mixture containing 18 μM Nup62, 6 μM UDP-^14C-GlcNAc, 100 nM ncOGT, and lx phosphate-buffered saline (1× PBS) (137 mM NaCl, 2.7 mM KCl, 10 mM Na2HPO4, and 1.8 mM KH2PO4, pH 7.4). The Nup62 glycosylation reactions were run for 15 min at 37° C. Reaction mixtures were subsequently quenched by spottinged on Whatman® Protran® nitrocellulose membrane, washed with 1× PBS three times for 15 minutes each. The membranes were air dried and then counted by liquid scintillation counting. The data were analyzed by Microsoft® Excel and Prism 6 (Graphpad®). Robust non-linear variable slope regressions were generated to determine the IC50 and Hill slope values.
In order to evaluate the mode of inhibition of OSMI-1 and UDP-5S-GlcNAc, a series of experiments, as outlined above, were performed with Nup62 as glycosylation substrate. The inhibition test of OSMI-1 was performed by varying the UDP-^14C-GlcNAc concentration from 0 to 0.25 mM while holding concentration of Nup62 constant at 10 μM with four different concentrations of OSMI-1 (0 to 2 μM) in 1× PBS with 100 nM ncOGT and with fixed and saturating concentrations of GST-Nup62 acceptor. The inhibition test of UDP-5S-GlcNAc was performed by varying the UDP-^14C-GlcNAc concentration from 0 to 1 mM while holding concentration of Nup62 constant at 10 μM with five different concentrations of UDP-5S-GlcNAc (0, 1, 5, 10, and 15 μM) in 1× PBS with 100 nM ncOGT. Each reaction was spotted on Whatman® grade P81 ion exchange chromatography paper circles, washed with 1× PBS three times for 15 minutes each. The membranes were air dried and then counted by liquid scintillation counting. Each assay was duplicated in parallel. The data were analyzed by Microsoft® Excel and Prism 6 (Graphpad®). The Michaelis-Menten plots and Ki of both inhibitors calculated under non-linear regression with competitive inhibition mode are shown in FIG. 5.

LNCaP cells = assay: LNCaP cell viability and c-Myc stability; format: cell-based, human; conditions: 50 μM
Protocol: The sample was separated by SDS-PAGE (Bio-Rad 4-15%, Cat: 345-0028), transferred to a nitrocellulose membrane (iBlot, Invitrogen) and probed with the indicated antibody. Tyipcally, membranes were blocked with 4% BSA in 1× TBS+0.04% tween-20 for 1 hour before incubating with antibody (typically diluted 1:1000 in 4% BSA inlx TBS+0.04% tween-20) overnight at 4° C. Membranes were then washed three times with 1× TBS+0.04% tween-20 and incubated with secondary antibody (typically diluted 1:5000 in 4% BSA in 1× TBS+0.04% tween-20) for 1 hour at room temperature. Lastly, membranes were washed 3× with 1× TBS+0.04% tween-20 and imaged with ECL. D283-Med cells were treated as above but grown in F12-K media supplemented with 10% FBS and antibiotics. HEK, HeLa and LNCaP cells were treated as above but grown in RPMI media supplemented with 10% FBS and antibiotics.
Cell viability, cytotoxicity and apoptosis signaling assays were performed in a 96-well plate using ApoTox-Glo reagent (Promega) according to the manufacturer's instructions.

[1] = tested on: CHO, HEK-293, HeLa and D283-Med cells; assay: Immunoblotting of global O-GlcNAcylation in various mammalian cell types; format: cell-based; conditions: 50 μM, 24 hours
Protocol: In vivo inhibition of glycosylation: For all immunoblotting experiments, CHO-K1 (CHO) cells were grown in F12-K media supplemented with 10% FBS and antibiotics at 37° C. in a 5% CO2 incubator. Cells were treated by adding indicated inhibitor in DMSO vehicle (0.5% final vehicle concentration) upon reaching 70% confluence. After indicated treatment length, cells were harvested by aspirating growth media and washing with ice cold 1× PBS. Cells were subsequently lysed in boiling 1% SDS/20 mM HEPES 7.9. After cooling to room temperature, 1 mM PMSF, 10 μM PUGNAC, 10 μM TMG and 1× Complete protease inhibitor cocktail were added to the solution. The mixture was sonicated and then subjected to a 5 minute incubation at 95° C. The samples were centrifuged for 15 minutes at 20,000×g and the supernatant was collected and the total protein was measured by BCA assay (BIO-RAD).
The sample was separated by SDS-PAGE (Bio-Rad 4-15%, Cat: 345-0028), transferred to a nitrocellulose membrane (iBlot, Invitrogen) and probed with the indicated antibody. Tyipcally, membranes were blocked with 4% BSA in 1× TBS+0.04% tween-20 for 1 hour before incubating with antibody (typically diluted 1:1000 in 4% BSA inlx TBS+0.04% tween-20) overnight at 4° C. […]

IC50 (ncOGT; 6 μM UDP-GlcNAc, 18 μM GST-Nup62): 3 µM
Ki (ncOGT; non-linear regression, competitive inhibition fit, Nup62 substrate, read-out: Inhibition constant (Ki)): 0.4 µM
SMILES: COc1ccccc1[C@@H](NS(=O)(=O)c1ccc2[nH]c(=O)ccc2c1)C(=O)N(Cc1ccco1)Cc1cccs1 [OSMI-1, (R)—N-(furan-2-ylmethyl)-2-(2-methoxyphenyl)-2-(2-oxo-1,2-dihydroquinoline-6-sulfonamido)-N-(thiophen-2-ylmethyl)acetamide]
LNCaP cell viability (LNCaP cells; 48 hrs): decrease in cell viability
c-Myc stability (LNCaP cells; LNCaP cells, 6 and 48 hours): decreases c-Myc stability
Global O-GlcNAc levels in four cell lines [1]: reduce global O-GlcNAc levels in all four lines examined
